Experimental data taken from patent US7759291B2, “Pyrazole compounds and use thereof” (Sumitomo Chemical Company, Limited, priority 2004, dated 2010).

Experiments:
[1] = tested on: Adoxophyes orana fasciata; experiment: Test Example 2: spray test on apple seedling against first-instar larvae of Adoxophyes orana fasciata, rate of dead pests; format: in vivo; details: 200 ppm, 30 ml sprayed over apple seedling, 7th day after application
Description: The formulation obtained according to Formulation Example 1 using the present invention compound (25): [drawing 138] and the comparative compound (b) described below respectively, was diluted with water so that the concentration of the present invention compound or the comparative compound came to 200 ppm. 30 ml of the diluted formulation described above was sprayed over the seedling of apple, which had been potted in plastic cup for 28 days after seeding about 15 cm height. After the sprayed solution was dried, about sixty first-instar larvae of Adoxophyes orana fasciata were set free on the apple seedling. On the 7 th day after application, the number of surviving or dyed Adoxophyes orana fasciata on the apple seedling was examined, and the rate of dead pests was calculated.

[2] = tested on: Tetranychus urticae; experiment: Test Example 1: spray test against Tetranychus urticae on brush bean, Controlling Rate; format: in vivo; details: 200 ppm, 30 ml sprayed over brush bean (Phaseolus vulgaris) with female adults
Description: The formulation obtained according to Formulation Example 1 using the present invention compounds (1) to (30) and the comparative compound (a) described below respectively, was diluted with water so that the concentration of the present invention compound or the comparative compound came to 200 ppm. About twenty female adults of Tetranychus urticae were set free on brush bean (Phaseolus vulgaris) in the primary leaf stage, which had been potted in a plastic cup for 7 days after the seeding. After 1 day, a 30 ml of the diluted formulation described-above was sprayed over the plant. On the 8th and 13th day after the application, the numbers of lived Tetranychus urticae on the leaf of brush bean plant were examined, and the Controlling Rates were calculated by the following scheme. Controlling Rate=100×{1−(a number of lived Tetranychus urticae in the treatment)/(a number of lived Tetranychus urticae in the non-treatment)}

Row | SMILES | rate of dead pests [1] | Controlling Rate ([2]; 8th day after the application) | Controlling Rate ([2]; 13th day after the application)
1 | Cc1nn(C)c(Oc2ccc(Oc3ccc(C(F)(F)F)cc3)cc2)c1C=O [comparative compound (b)] | less than 80% |  | 
2 | Cc1nn(C)c(Oc2ccc(Oc3ccc(C(F)(F)F)cc3)cc2)c1C=NOCc1ccccc1 [comparative compound (a)] |  | less than 30% | less than 30%
3 | C=CCOc1ccc(Oc2ccc(Oc3c(C)c(C)nn3C)cc2)cc1 [present invention compound (25)] | ≥ 90% |  | 
